Structures can show the parent of a compound that is named as a salt. Where two headings read alike, the source gives them in different places.
How the values were obtained:
Assay in all cases: AK assay 384-well format, Prestwick library screening
[1] = system: E. faecium; assay type: cell-based, Enterococcus faecium; settings: for fold induction at 50 µM: Enterococcus faecium, 3 h
[2] = system: S. aureus strain USA300-0114; assay type: cell-based, Staphylococcus aureus; settings: for fold induction at 50 µM: Staphylococcus aureus, USA300, 3 h
[3] = system: K. pneumoniae; assay type: cell-based, Klebsiella pneumoniae; settings: for fold induction at 50 µM: Klebsiella pneumoniae, 3 h
[4] = system: A. baumannii strain 98-37-09; assay type: cell-based, Acinetobacter baumannii; settings: for fold induction at 50 µM: Acinetobacter baumannii, 983709, 3 h
[5] = system: P. aeruginosa; assay type: cell-based, Pseudomonas aeruginosa; settings: for fold induction at 50 µM: Pseudomonas aeruginosa, 3 h
[6] = system: E. cloacae; assay type: cell-based, Enterobacter cloacae; settings: for fold induction at 50 µM: Enterobacter cloacae, 3 h
[7] = system: E. coli; assay type: cell-based, Escherichia coli; settings: for fold induction at 50 µM: Escherichia coli, 3 h
[8] = 50 μM final drug concentration, cutoff for positive-scoring molecules 3-fold increase, read-out: AK-based Prestwick Library Screening Results, E. faecium (fold increase in extracellular AK activity)
[9] = 50 μM final drug concentration, cutoff for positive-scoring molecules 3-fold increase, read-out: AK-based Prestwick Library Screening Results, S. aureus (fold increase in extracellular AK activity)
[10] = 50 μM final drug concentration, cutoff for positive-scoring molecules 3-fold increase, read-out: AK-based Prestwick Library Screening Results, K. pneumoniae (fold increase in extracellular AK activity)
[11] = 50 μM final drug concentration, cutoff for positive-scoring molecules 3-fold increase, read-out: AK-based Prestwick Library Screening Results, A. baumannii (fold increase in extracellular AK activity)
[12] = 50 μM final drug concentration, cutoff for positive-scoring molecules 3-fold increase, read-out: AK-based Prestwick Library Screening Results, P. aeruginosa (fold increase in extracellular AK activity)
[13] = 50 μM final drug concentration, cutoff for positive-scoring molecules 3-fold increase, read-out: AK-based Prestwick Library Screening Results, E. cloacae (fold increase in extracellular AK activity)
[14] = 50 μM final drug concentration, cutoff for positive-scoring molecules 3-fold increase, read-out: AK-based Prestwick Library Screening Results, E. coli (fold increase in extracellular AK activity)
[15] = 50 μM final drug concentration, planktonic, […]
[16] = planktonic E. faecium, 50 μM final drug concentration, 384-well, cutoff for positive-scoring molecules 3-fold increase, read-out: AK-based Prestwick Library Screening Results: E. faecium (increase in extracellular AK activity)
[17] = planktonic S. aureus, 50 μM final drug concentration, 384-well, cutoff for positive-scoring molecules 3-fold increase, read-out: AK-based Prestwick Library Screening Results: S. aureus (increase in extracellular AK activity)
[18] = planktonic K. pneumoniae, 50 μM final drug concentration, 384-well, cutoff for positive-scoring molecules 3-fold increase, read-out: AK-based Prestwick Library Screening Results: K. pneumoniae (increase in extracellular AK activity)
[19] = planktonic A. baumannii, 50 μM final drug concentration, 384-well, cutoff for positive-scoring molecules 3-fold increase, read-out: AK-based Prestwick Library Screening Results: A. baumannii (increase in extracellular AK activity)
[20] = planktonic P. aeruginosa, 50 μM final drug concentration, 384-well, cutoff for positive-scoring molecules 3-fold increase, read-out: AK-based Prestwick Library Screening Results: P. aeruginosa (increase in extracellular AK activity)
[21] = planktonic E. cloacae, 50 μM final drug concentration, 384-well, cutoff for positive-scoring molecules 3-fold increase, read-out: AK-based Prestwick Library Screening Results: E. cloacae (increase in extracellular AK activity)
[22] = planktonic E. coli, 50 μM final drug concentration, 384-well, cutoff for positive-scoring molecules 3-fold increase, read-out: AK-based Prestwick Library Screening Results: E. coli (increase in extracellular AK activity)
[23] = 50 μM final drug concentration, planktonic, […], read-out: AK-based Prestwick Library Screening Results, E. faecium (fold increase in extracellular AK activity)
[24] = 50 μM final drug concentration, planktonic, […], read-out: AK-based Prestwick Library Screening Results, S. aureus (fold increase in extracellular AK activity)
[25] = 50 μM final drug concentration, planktonic, […], read-out: AK-based Prestwick Library Screening Results, K. pneumoniae (fold increase in extracellular AK activity)
[26] = 50 μM final drug concentration, planktonic, […], read-out: AK-based Prestwick Library Screening Results, A. baumannii (fold increase in extracellular AK activity)
[27] = 50 μM final drug concentration, planktonic, […], read-out: AK-based Prestwick Library Screening Results, P. aeruginosa (fold increase in extracellular AK activity)
[28] = 50 μM final drug concentration, planktonic, […], read-out: AK-based Prestwick Library Screening Results, E. cloacae (fold increase in extracellular AK activity)
[29] = 50 μM final drug concentration, planktonic, […], read-out: AK-based Prestwick Library Screening Results, E. coli (fold increase in extracellular AK activity)

## CC[N+](CC)(CC(=O)Nc1c(C)cccc1C)Cc1ccccc1 [Denatonium benzoate]
[1]; [8]
  fold induction at 50 µM: 0.9
[2]; [9]
  fold induction at 50 µM: 0.4
[3]; [10]
  fold induction at 50 µM: 0.4
[4]; [11]
  fold induction at 50 µM: 0.3
[5]; [12]
  fold induction at 50 µM: 0.4
[6]; [13]
  fold induction at 50 µM: 0.4
[7]; [14]
  fold induction at 50 µM: 0.5

## COc1cc2nc(N3CCN(C(=O)C4COc5ccccc5O4)CC3)nc(N)c2cc1OC (stereo not shown) [Doxazosin mesylate]
[1]; [8]
  fold induction at 50 µM: 1.1
[2]; [9]
  fold induction at 50 µM: 1.2
[3]; [10]
  fold induction at 50 µM: 0.9
[4]; [11]
  fold induction at 50 µM: 1.3
[5]; [12]
  fold induction at 50 µM: 1.1
[6]; [13]
  fold induction at 50 µM: 1.5
[7]; [14]
  fold induction at 50 µM: 1.4

## CC(C)C[C@H]1C(=O)N2CCC[C@H]2[C@]2(O)O[C@](NC(=O)[C@@H]3C=C4c5cccc6[nH]cc(c56)C[C@H]4N(C)C3)(C(C)C)C(=O)N12 [Ergocryptine-alpha]
[1]; [15]
  AK-based Prestwick Library Screening Results, E. faecium (fold increase in extracellular AK activity): 0.7
[2]; [15]
  AK-based Prestwick Library Screening Results, S. aureus (fold increase in extracellular AK activity): 0.2
[3]; [15]
  AK-based Prestwick Library Screening Results, K. pneumoniae (fold increase in extracellular AK activity): 0.5
[4]; [15]
  AK-based Prestwick Library Screening Results, A. baumannii (fold increase in extracellular AK activity): 0.5
[5]; [15]
  AK-based Prestwick Library Screening Results, P. aeruginosa (fold increase in extracellular AK activity): 0.4
[6]; [15]
  AK-based Prestwick Library Screening Results, E. cloacae (fold increase in extracellular AK activity): 0.4
[7]; [15]
  AK-based Prestwick Library Screening Results, E. coli (fold increase in extracellular AK activity): 0.4

## C=N[C@@H](C(=O)N[C@@H]1C(=O)N2[C@@H]1SC(C)(C)[C@@H]2C(=O)O)c1ccccc1 [Metampicillin sodium salt]
[1]; [16]
  fold induction at 50 µM: 1.6
[2]; [17]
  fold induction at 50 µM: 1.3
[3]; [18]
  fold induction at 50 µM: 1
[4]; [19]
  fold induction at 50 µM: 1.1
[5]; [20]
  fold induction at 50 µM: 1.3
[6]; [21]
  fold induction at 50 µM: 4.3
[7]; [22]
  fold induction at 50 µM: 16.8

## C[C@]12CC[C@H]3C(=CCc4cc(O)ccc43)[C@@H]1CCC2=O [Equilin]
[1]; read-out: AK-based Prestwick Library Screening Results, E. faecium (fold increase in extracellular AK activity)
  fold induction at 50 µM: 1
[2]; read-out: AK-based Prestwick Library Screening Results, S. aureus (fold increase in extracellular AK activity)
  fold induction at 50 µM: 3.9
[3]; read-out: AK-based Prestwick Library Screening Results, K. pneumoniae (fold increase in extracellular AK activity)
  fold induction at 50 µM: 0.9
[4]; read-out: AK-based Prestwick Library Screening Results, A. baumannii (fold increase in extracellular AK activity)
  fold induction at 50 µM: 1
[5]; read-out: AK-based Prestwick Library Screening Results, P. aeruginosa (fold increase in extracellular AK activity)
  fold induction at 50 µM: 1.1
[6]; read-out: AK-based Prestwick Library Screening Results, E. cloacae (fold increase in extracellular AK activity)
  fold induction at 50 µM: 1.4
[7]; read-out: AK-based Prestwick Library Screening Results, E. coli (fold increase in extracellular AK activity)
  fold induction at 50 µM: 1.3

## CC[C@H](c1ccc(O)cc1)[C@@H](CC)c1ccc(O)cc1 [Hexestrol]
[1]; [8]
  fold induction at 50 µM: 1.2
[2]; [9]
  fold induction at 50 µM: 0.7
[3]; [10]
  fold induction at 50 µM: 0.7
[4]; [11]
  fold induction at 50 µM: 3
[5]; [12]
  fold induction at 50 µM: 1.1
[6]; [13]
  fold induction at 50 µM: 1.6
[7]; [14]
  fold induction at 50 µM: 1.4

## C[N+](C)(C)CCOC(N)=O [Carbachol]
[1]; [8]
  fold induction at 50 µM: 1.1
[2]; [9]
  fold induction at 50 µM: 1.4
[3]; [10]
  fold induction at 50 µM: 1.2
[4]; [11]
  fold induction at 50 µM: 1.3
[5]; [12]
  fold induction at 50 µM: 1.2
[6]; [13]
  fold induction at 50 µM: 1.2
[7]; [14]
  fold induction at 50 µM: 1.2

## O=C(CCCN1CCC(O)(c2ccc(Br)cc2)CC1)c1ccc(F)cc1 [Bromperidol]
[1]; planktonic E. faecium, 50 μM final drug concentration, cutoff for positive-scoring molecules 3-fold increase, read-out: AK-based Prestwick Library Screening Results, E. faecium (increase in extracellular AK activity)
  fold induction at 50 µM: 0.9
[2]; planktonic S. aureus, 50 μM final drug concentration, cutoff for positive-scoring molecules 3-fold increase, read-out: AK-based Prestwick Library Screening Results, S. aureus (increase in extracellular AK activity)
  fold induction at 50 µM: 0.7
[3]; planktonic K. pneumoniae, 50 μM final drug concentration, cutoff for positive-scoring molecules 3-fold increase, read-out: AK-based Prestwick Library Screening Results, K. pneumoniae (increase in extracellular AK activity)
  fold induction at 50 µM: 0.7
[4]; planktonic A. baumannii, 50 μM final drug concentration, cutoff for positive-scoring molecules 3-fold increase, read-out: AK-based Prestwick Library Screening Results, A. baumannii (increase in extracellular AK activity)
  fold induction at 50 µM: 1
[5]; planktonic P. aeruginosa, 50 μM final drug concentration, cutoff for positive-scoring molecules 3-fold increase, read-out: AK-based Prestwick Library Screening Results, P. aeruginosa (increase in extracellular AK activity)
  fold induction at 50 µM: 1.1
[6]; planktonic E. cloacae, 50 μM final drug concentration, cutoff for positive-scoring molecules 3-fold increase, read-out: AK-based Prestwick Library Screening Results, E. cloacae (increase in extracellular AK activity)
  fold induction at 50 µM: 1.1
[7]; planktonic E. coli, 50 μM final drug concentration, cutoff for positive-scoring molecules 3-fold increase, read-out: AK-based Prestwick Library Screening Results, E. coli (increase in extracellular AK activity)
  fold induction at 50 µM: 0.8

## CNC(=C[N+](=O)[O-])NCCSCc1csc(CN(C)C)n1 [Nizatidine]
[1]; [8]
  fold induction at 50 µM: 1
[2]; [9]
  fold induction at 50 µM: 1.2
[3]; [10]
  fold induction at 50 µM: 0.9
[4]; [11]
  fold induction at 50 µM: 1
[5]; [12]
  fold induction at 50 µM: 1.2
[6]; [13]
  fold induction at 50 µM: 1.7
[7]; [14]
  fold induction at 50 µM: 1.3

## COc1ccc2c(c1)[nH]c1c(C)nccc12 [Harmine hydrochloride]
[1]; [23]
  fold induction at 50 µM: 1.1
[2]; [24]
  fold induction at 50 µM: 0.9
[3]; [25]
  fold induction at 50 µM: 0.7
[4]; [26]
  fold induction at 50 µM: 1
[5]; [27]
  fold induction at 50 µM: 1.2
[6]; [28]
  fold induction at 50 µM: 1.5
[7]; [29]
  fold induction at 50 µM: 1.1

## CC(C)[C@@]1(NC(=O)[C@@H]2C[C@@H]3c4cccc5[nH]cc(c45)C[C@H]3N(C)C2)O[C@@]2(O)[C@@H]3CCCN3C(=O)[C@H](Cc3ccccc3)N2C1=O [Dihydroergocristine mesylate]
[1]; [16]
  fold induction at 50 µM: 0.9
[2]; [17]
  fold induction at 50 µM: 0.5
[3]; [18]
  fold induction at 50 µM: 0.6
[4]; [19]
  fold induction at 50 µM: 0.7
[5]; [20]
  fold induction at 50 µM: 0.6
[6]; [21]
  fold induction at 50 µM: 0.6
[7]; [22]
  fold induction at 50 µM: 0.7

## Cc1cc2c(C(C)C)c(O)c(O)c(C=O)c2c(O)c1-c1c(C)cc2c(C(C)C)c(O)c(O)c(C=O)c2c1O [Gossypol]
[1]; [23]
  fold induction at 50 µM: 1.3
[2]; [24]
  fold induction at 50 µM: 0.2
[3]; [25]
  fold induction at 50 µM: 0.3
[4]; [26]
  fold induction at 50 µM: 0.4
[5]; [27]
  fold induction at 50 µM: 0.5
[6]; [28]
  fold induction at 50 µM: 1.5
[7]; [29]
  fold induction at 50 µM: 0.6

## CC[N+](C)(C)Cc1ccccc1Br [Bretylium tosylate]
[1]; [8]
  fold induction at 50 µM: 1
[2]; [9]
  fold induction at 50 µM: 1.3
[3]; [10]
  fold induction at 50 µM: 1.1
[4]; [11]
  fold induction at 50 µM: 1.3
[5]; [12]
  fold induction at 50 µM: 1.2
[6]; [13]
  fold induction at 50 µM: 1.6
[7]; [14]
  fold induction at 50 µM: 1.3

— patent publication US10004701B2, “Methods and compositions for treating infection” (UNIVERSITY OF ROCHESTER, priority 2012, dated 2018)
